Where “and” joins values, the source holds several entries; their conditions need not be identical. Equal entries are not always repeated. Where two headings read alike, the source gives them in different places.
Assays:
[1] = test system: brown mustard (Brassica juncea, BRSJU); experiment: Greenhouse postemergence trial, % visual injury; format: in vivo; settings: BRSJU; 2,3,5-TIBA 140 g ai/ha
winter wheat (TRZAW) [2] = experiment: Greenhouse postemergence trial, crop phytotoxicity (% visual injury); settings: TRZAW
[3] = test system: sunflower (Helianthus annus, HELAN); experiment: Greenhouse postemergence trial, % visual injury; format: in vivo; settings: HELAN
[4] = test system: turnip (Brassica rapa, BRSRR); experiment: Greenhouse postemergence trial, % visual injury; format: in vivo; settings: for % visual injury, Obs: BRSRR
[5] = test system: Roundup Ready rape (Brassica napus, BRSNN-RR); experiment: Greenhouse postemergence trial, % visual injury; format: in vivo
[6] = test system: winter rape (BRSNW, Brassica napus); experiment: Greenhouse postemergence trial, % visual injury; format: in vivo; settings: for % visual injury, Obs: BRSNW
[7] = test system: spring rape (Brassica napus, BRSNN); experiment: Greenhouse postemergence trial, % visual injury; settings: for % visual injury, Obs: BRSNN
[8] = test system: Chinese kale (Brassica alboglabra, BRSAG); experiment: Greenhouse postemergence trial, % visual injury; format: in vivo; settings: BRSAG
common rice (ORYSA) = experiment: Greenhouse postemergence trial, crop phytotoxicity (% visual injury); settings: ORYSA
[9] = test system: velvetleaf (Abutilon theophrasti, ABUTH); experiment: Greenhouse postemergence trial, % visual injury; format: in vivo; settings: Abutilon theophrasti, post-emergence, read-out: % visual injury, Obs; for pest or weed control at 5 g/ha / pest or weed control at 10 g/ha: ABUTH
maize (ZEAMX) [10] = experiment: Greenhouse postemergence trial, crop phytotoxicity (% visual injury); settings: ZEAMX
[11] = test system: wild pansy (Viola tricolor, VIOTR); experiment: Greenhouse postemergence trial, % visual injury; settings: for % visual injury, Obs: VIOTR
[12] = test system: wild buckwheat (Polygonum convolvulus, POLCO); experiment: Greenhouse postemergence trial, % visual injury; format: in vivo; settings: for % visual injury, Obs: POLCO
winter wheat (TRZAW) [13] = settings: winter wheat (Triticum aestivum), in vivo
[14] = test system: grain sorghum (Sorghum vulgare, SORVU); experiment: Greenhouse postemergence trial, % visual injury; format: in vivo; settings: SORVU
[15] = test system: common lambsquarters (CHEAL, Chenopodium album L.); experiment: Greenhouse postemergence trial, % visual injury; format: in vivo; settings: CHEAL
[16] = test system: wild radish (Raphanus raphanistrum, RAPRA); experiment: Greenhouse postemergence trial, % visual injury; format: in vivo
[17] = test system: ivyleaf morningglory (Ipomoea hederacea, IPOHE); experiment: Greenhouse postemergence trial, % visual injury; settings: Ipomoea, post-emergence
[18] = test system: pigweed (AMARE, Amaranthus retroflexus); experiment: Greenhouse postemergence trial, % visual injury; format: in vivo; settings: AMARE
[19] = test system: blackgrass (Alopecurus myosuroides, ALOMY); experiment: Greenhouse postemergence trial, % visual injury; format: in vivo
[20] = test system: nutsedge (Cyperus esculentus, CYPES); experiment: Greenhouse postemergence trial, % visual injury; format: in vivo; settings: CYPES
[21] = test system: Russian thistle (Salsola iberica, SASKR); experiment: Greenhouse postemergence trial, % visual injury; format: in vivo; settings: SASKR
[22] = test system: wild mustard (Sinapis arvensis, SINAR); experiment: Greenhouse postemergence trial, % visual injury; format: in vivo; settings: for % visual injury, Obs: SINAR
[23] = test system: kochia (KCHSC, Kochia scoparia); experiment: Greenhouse postemergence trial, % visual injury; format: in vivo; settings: for % visual injury, Obs.: Table 61
Method: Following the protocol in Example 1, compound 1 and compound 2 were combined with 2,4 D EHE (EC) and applied to kochia (KCHSC, Kochia scoparia) and the phytotoxicity of the herbicidal compositions was measured.
Following the protocol in Example 1, compound 1 (EC) and Compound 2 (SC) were combined with diflufenzopyr and applied to kochia (Kochia scoparia, KCHSC) and the phytotoxicity of the herbicidal composition was measured.

[24] = test system: large crabgrass (Digitaria sanguinalis, DIGSA); experiment: Greenhouse postemergence trial, % visual injury; format: in vivo; settings: DIGSA
maize (ZEAMX) [25] = settings: maize (Zea mays), in vivo
[26] = test system: wild oat (Avena fatua, VEFA); experiment: Greenhouse postemergence trial, % visual injury; format: in vivo; settings: AVEFA
[27] = test system: black mustard (Brassica nigra, BRSNI); experiment: Greenhouse postemergence trial, % visual injury; format: in vivo
[28] = test system: Indian hedge mustard (Sisymbrium orientale, SSYOR); experiment: Greenhouse postemergence trial, % visual injury; format: in vivo
[29] = test system: poinsettia (Euphorbia heterophylla, EPHHL); experiment: Greenhouse postemergence trial, % visual injury; settings: Euphorbia heterophylla, post-emergence
[30] = test system: rutabaga (Brassica napus var. napobrassica, BRSNA); experiment: Greenhouse postemergence trial, % visual injury; format: in vivo; settings: BRSNA; naptalam 140 g ai/ha
[31] = test system: Canadian thistle (CIRAR, Cirsium arvense); experiment: Greenhouse postemergence trial, % visual injury; settings: CIRAR; naptalam 140 g ai/ha;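 also: plants sprayed at second to third true leaf stage, injury scored visually 20-22 d later against solvent-blank sprayed controls, 0 meaning no injury and 100 complete kill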
[32] = Brassica napus, post-emergence, read-out: % visual injury, Obs

Q: Which results are given for `O=C(O)c1cc(I)cc(I)c1I` [2,3,5-TIBA, 2,3,5-triiodobenzoic acid, reference compound]?
A: % visual injury, Obs [1]: 10%; % visual injury, Obs (winter wheat (TRZAW) [2]; 2,3,5-TIBA 140 g ai/ha): 0%; % visual injury, Obs ([3]; 2,3,5-TIBA 140 g ai/ha): 0%; % visual injury, Obs ([4]; 2,3,5-TIBA 140 g ai/ha): 20%; % visual injury, Obs ([5]; 2,3,5-TIBA 140 g ai/ha): 0%; % visual injury, Obs ([6]; 2,3,5-TIBA 140 g ai/ha): 0%; plant injury at 140 g/ha [7, 32]: 5%; % visual injury, Obs ([8]; 2,3,5-TIBA 140 g ai/ha): 0%; % visual injury, Obs (common rice (ORYSA); 2,3,5-TIBA 140 g ai/ha): 0%; pest or weed control at 140 g/ha [9]: 0%; % visual injury, Obs (maize (ZEAMX) [10]; 2,3,5-TIBA 140 g ai/ha): 0%; % visual injury, Obs ([11]; 2,3,5-TIBA 140 g ai/ha): 0%; % visual injury, Obs ([12]; 2,3,5-TIBA 140 g ai/ha): 0%

Q: What does the source list for `Nc1c(F)c(-c2ccc3cc[nH]c3c2F)nc(C(=O)OCc2ccccc2)c1Cl` [compound 2]?
A: % visual injury, Obs (winter wheat (TRZAW) [13]): 3%; % visual injury, Obs ([14]; 5 g ae/ha): 38%; % visual injury, Obs ([14]; 10 g ae/ha): 63%; % visual injury, Obs ([15]; 5 g ae/ha): 88%; % visual injury, Obs ([15]; 10 g ae/ha): 99%; % visual injury (Obs) ([4]; compound 2 SC 2.5 g ae/ha): 23%; % visual injury (Obs) ([4]; compound 2 SC 5 g ae/ha): 67%; % visual injury (Obs) ([16]; compound 2 SC 2.5 g ae/ha): 17%; % visual injury (Obs) ([16]; compound 2 SC 5 g ae/ha): 25%; pest or weed control at 5 g/ha ([17]; read-out: % visual injury, Obs, IPOHE, 5 g ae/ha): 10%; pest or weed control at 10 g/ha ([17]; read-out: % visual injury, Obs, IPOHE, 10 g ae/ha): 20%; pest or weed control at 5 g/ha ([17]; read-out: % visual injury, Obs, IPOHE, compound 2 (EC) 5 g ae/ha): 10%; pest or weed control at 10 g/ha ([17]; read-out: % visual injury, Obs, IPOHE, compound 2 (EC) 10 g ae/ha): 20%; % visual injury, Obs ([6]; 5 g ae/ha): 30%; % visual injury, Obs ([6]; 10 g ae/ha): 50%; % visual injury (Obs) ([6]; compound 2 SC 5 g ae/ha): 50%; % visual injury (Obs) ([6]; compound 2 SC 10 g ae/ha): 50%; % visual injury, Obs ([18]; 5 g ae/ha): 88% and 65%; % visual injury, Obs ([18]; 10 g ae/ha): 100% and 60%; % visual injury, Obs ([18]; compound 2 (EC) 5 g ae/ha): 88%; % visual injury, Obs ([18]; compound 2 (EC) 10 g ae/ha): 100%; % visual injury, Obs ([19]; 5 g ae/ha): 0%; % visual injury, Obs ([19]; 10 g ae/ha): 0%; % visual injury, Obs ([20]; 5 g ae/ha): 5%; % visual injury, Obs ([20]; 10 g ae/ha): 10%; % visual injury, Obs ([20]; compound 2 (EC) 5 g ae/ha): 5%; % visual injury, Obs ([20]; compound 2 (EC) 10 g ae/ha): 10%; % visual injury, Obs ([7]; compound 2 (EC) 5 g ae/ha): 30%; % visual injury, Obs ([7]; compound 2 (EC) 10 g ae/ha): 55%; plant injury at 5 g/ha [7, 32]: 30%; plant injury at 10 g/ha [7, 32]: 55%; % visual injury, Obs ([21]; 5 g ae/ha): 10%; % visual injury, Obs ([21]; 10 g ae/ha): 10%; pest or weed control at 5 g/ha ([9]; 5 g ae/ha): 78%; pest or weed control at 10 g/ha ([9]; 10 g ae/ha): 95%; pest or weed control at 5 g/ha ([9]; compound 2 (EC) 5 g ae/ha): 78%; pest or weed control at 10 g/ha ([9]; compound 2 (EC) 10 g ae/ha): 95%; % visual injury, Obs ([22]; 5 g ae/ha): 95%; % visual injury, Obs ([22]; 10 g ae/ha): 100%; % visual injury (Obs) ([22]; compound 2 SC 2.5 g ae/ha): 87%; % visual injury (Obs) ([22]; compound 2 SC 5 g ae/ha): 100% and 94%; % visual injury (Obs) ([22]; compound 2 SC 10 g ae/ha): 100%; % visual injury Obs ([23]; 8.75 g ae/ha alone, 20-22 d): 55%; pest or weed control at 5 g/ha ([23]; Bassia scoparia, post-emergence, KCHSC, 5 g ae/ha, read-out: % visual injury, Obs): 30%; pest or weed control at 10 g/ha ([23]; Bassia scoparia, post-emergence, KCHSC, 10 g ae/ha, read-out: % visual injury, Obs): 75%; % visual injury, Obs. ([23]; KCHSC, compound 2 (SC) 8.75 g ae/ha): 84%; % visual injury, Obs. ([23]; KCHSC, compound 2 (SC) 17.5 g ae/ha): 86%; % visual injury, Obs ([24]; compound 2 (EC) 5 g ae/ha): 28%; % visual injury, Obs ([24]; compound 2 (EC) 10 g ae/ha): 53%; pest or weed control at 5 g/ha ([24]; Digitaria sanguinalis, post-emergence, 5 g ae/ha, read-out: % visual injury, Obs): 28%; pest or weed control at 10 g/ha ([24]; Digitaria sanguinalis, post-emergence, 10 g ae/ha, read-out: % visual injury, Obs): 53%; % visual injury, Obs (maize (ZEAMX) [25]): 3%; % visual injury, Obs ([11]; 5 g ae/ha): 15%; % visual injury, Obs ([11]; 10 g ae/ha): 40%; % visual injury, Obs ([11]; compound 2 (EC) 5 g ae/ha): 15%; % visual injury, Obs ([11]; compound 2 (EC) 10 g ae/ha): 40%; % visual injury (Obs) ([11]; compound 2 SC 2.5 g ae/ha): 13%; % visual injury (Obs) ([11]; compound 2 SC 5 g ae/ha): 23%; % visual injury, Obs ([26]; 5 g ae/ha): 0%; % visual injury, Obs ([26]; 10 g ae/ha): 0%; % visual injury (Obs) ([27]; compound 2 SC 2.5 g ae/ha): 30%; % visual injury (Obs) ([27]; compound 2 SC 5 g ae/ha): 70%; % visual injury (Obs) ([12]; compound 2 SC 5 g ae/ha): 30%; % visual injury (Obs) ([12]; compound 2 SC 10 g ae/ha): 50%; % visual injury (Obs) ([28]; compound 2 SC 2.5 g ae/ha): 20%; % visual injury (Obs) ([28]; compound 2 SC 5 g ae/ha): 40%; pest or weed control at 5 g/ha ([29]; read-out: % visual injury, Obs, EPHHL, 5 g ae/ha): 35%; pest or weed control at 10 g/ha ([29]; read-out: % visual injury, Obs, EPHHL, 10 g ae/ha): 75%; pest or weed control at 5 g/ha ([29]; read-out: % visual injury, Obs, EPHHL, compound 2 (EC) 5 g ae/ha): 35%; pest or weed control at 10 g/ha ([29]; read-out: % visual injury, Obs, EPHHL, compound 2 (EC) 10 g ae/ha): 75%

Q: What does the source list for `O=C(O)c1ccccc1C(=O)Nc1cccc2ccccc12` [naptalam, reference compound]?
A: % visual injury, Obs (winter wheat (TRZAW) [2]; naptalam 140 g ai/ha): 0%; % visual injury, Obs ([3]; naptalam 140 g ai/ha): 0%; % visual injury, Obs ([4]; naptalam 140 g ai/ha): 0%; % visual injury, Obs ([5]; naptalam 140 g ai/ha): 0%; % visual injury, Obs ([6]; naptalam 140 g ai/ha): 0%; % visual injury, Obs [30]: 0%; % visual injury, Obs ([8]; naptalam 140 g ai/ha): 0%; % visual injury, Obs (common rice (ORYSA); naptalam 140 g ai/ha): 0%; pest or weed control at 140 g/ha [9]: 0%; % visual injury, Obs [31]: 0%; % visual injury, Obs (maize (ZEAMX) [10]; naptalam 140 g ai/ha): 0%; % visual injury, Obs ([11]; naptalam 140 g ai/ha): 0%; % visual injury, Obs ([12]; naptalam 140 g ai/ha): 0%

— patent publication US9521847B2, “Synergistic weed control from applications of pyridine carboxylic acid herbicides and synthetic auxin herbicides and/or auxin transport inhibitors” (Dow AgroSciences LLC, priority 2014, dated 2016)
